The assay has as its target T1, porcine liver COMT (Sus scrofa, UniProt Q99028).
T1 sequence (Q99028 1-186): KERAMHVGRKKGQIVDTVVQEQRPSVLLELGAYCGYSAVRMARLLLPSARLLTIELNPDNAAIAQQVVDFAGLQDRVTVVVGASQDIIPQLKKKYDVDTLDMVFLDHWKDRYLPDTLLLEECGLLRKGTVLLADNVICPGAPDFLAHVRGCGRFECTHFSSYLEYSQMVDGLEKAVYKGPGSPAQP
Description: Catechol O-methyltransferase activity assay. The format is biochemical. The note with it: 1 mM sinefungin; 1 mM SAM; 2 h at 37 °C.

Regarding `Nc1ncnc2c1ncn2[C@@H]1O[C@H](C[C@@H](N)CC[C@H](N)C(=O)O)[C@@H](O)[C@H]1O` [singfungin, sinefungin], the “inhibition of COMT activity” value was “significantly inhibited”.

The values are drawn from article PMC4688878 (Chemical Research in Toxicology, 2015).
